target: Factor D (Homo sapiens (Human), UniProt P00746); assay: biochemical; format: biochemical; conditions: read-out: IC50
Sequence (P00746 26-253): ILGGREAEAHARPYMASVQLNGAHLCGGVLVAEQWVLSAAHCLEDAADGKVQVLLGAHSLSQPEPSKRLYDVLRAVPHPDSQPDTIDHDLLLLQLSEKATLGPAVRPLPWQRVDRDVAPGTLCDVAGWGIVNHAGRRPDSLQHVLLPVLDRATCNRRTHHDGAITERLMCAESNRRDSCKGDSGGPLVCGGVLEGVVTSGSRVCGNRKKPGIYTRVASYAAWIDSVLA

Row | Structure (SMILES) | IC50
1 | CC(=O)c1cn(CC(=O)N2C[C@H](F)C[C@H]2C(=O)NCc2cccc(Cl)c2F)c2ccc(OC(F)(F)F)cc12 [Example 539, (2S,4R)-1-[2-(3-Acetyl-5-trifluoromethoxy-indol-1-yl)-acetyl]-4-fluoro-pyrrolidine-2-carboxylic acid 3-chloro-2-fluoro-benzylamide] | 31 nM
2 | COC(=O)c1ccc2c(c1)c(C(C)=O)cn2CC(=O)N1[C@@H]2C[C@@H]2C[C@H]1C(=O)NCc1cccc(Cl)c1F [Example 540, 3-Acetyl-1-{2-[(1R,3S,5R)-3-(3-chloro-2-fluoro-benzylcarbamoyl)-2-aza-bicyclo[3.1.0]hex-2-yl]-2-oxo-ethyl}-1H-indole-5-carboxylic acid methyl ester] | 236 nM
3 | COC(=O)c1cccc2c(C(C)=O)cn(CC(=O)N3[C@@H]4C[C@@H]4C[C@H]3C(=O)NCc3cccc(Cl)c3F)c12 [Example 541, 3-Acetyl-1-{2-[(1R,3S,5R)-3-(3-chloro-2-fluorobenzylcarbamoyl)-2-aza-bicyclo[3.1.0]hex-2-yl]-2-oxo-ethyl}-1H-indole-7-carboxylic acid methyl ester] | 91 nM
4 | COC(=O)c1ccc2c(C(C)=O)cn(CC(=O)N3C[C@H](F)C[C@H]3C(=O)NCc3cccc(Cl)c3F)c2c1 [Example 542, 3-Acetyl-1-{2-[(2S,4R)-2-(3-chloro-2-fluoro-benzylcarbamoyl)-4-fluoro-pyrrolidin-1-yl]-2-oxo-ethyl}-1H-indole-6-carboxylic acid methyl ester] | 19 nM
5 | C[C@@]1(F)C[C@@H](C(=O)NCc2cccc(Cl)c2F)N(C(=O)Cn2cc(C(=O)CO)c3ccccc32)C1 [Example 543, (2S,4R)-4-Fluoro-1-{2-[3-(2-hydroxy-acetyl)-indol-1-yl]-acetyl}-4-methyl-pyrrolidine-2-carboxylic acid 3-chloro-2-fluoro-benzylamide] | 245 nM
6 | CC(=O)c1cn(CC(=O)N2C[C@@H]3C[C@@H]3[C@H]2C(=O)NCc2cccc(Cl)c2F)c2cnccc12 [Example 544, (1S,2S,5R)-3-[2-(3-Acetyl-pyrrolo[2,3-c]pyridin-1-yl)-acetyl]-3-aza-bicyclo[3.1.0] hexane-2-carboxylic acid 3-chloro-2-fluoro-benzylamide] | 1110 nM
7 | COC(=O)Cc1ccc2c(C(C)=O)cn(CC(=O)N3[C@@H]4C[C@@H]4C[C@H]3C(=O)NCc3cccc(Cl)c3F)c2c1 [Example 545, (3-Acetyl-1-{2-[(1R,3S,5R)-3-(3-chloro-2-fluoro-benzylcarbamoyl)-2-aza-bicyclo[3.1.0]hex-2-yl]-2-oxo-ethyl}-1H-indol-6-yl)-acetic acid methyl ester] | 113 nM
8 | CC(=O)c1cn(CC(=O)N2C[C@H](F)C[C@H]2C(=O)NCc2cccc(Cl)c2F)c2ncccc12 [Example 547, (2S,4R)-1-[2-(3-Acetyl-pyrrolo[2,3-b]pyridin-1-yl)-acetyl]-4-fluoro-pyrrolidine-2-carboxylic acid 3-chloro-2-fluoro-benzylamide] | 38 nM
9 | COC(=O)c1ccc2c(C(C)=O)cn(CC(=O)N3C[C@](C)(F)C[C@H]3C(=O)NCc3cccc(Cl)c3F)c2c1 [Example 548, 3-Acetyl-1-{2-[(2S,4R)-2-(3-chloro-2-fluoro-benzylcarbamoyl)-4-fluoro-4-methyl-pyrrolidin-1-yl]-2-oxo-ethyl}-1H-indole-6-carboxylic acid methyl ester] | 363 nM
10 | COC(=O)Cc1ccc2c(C(C)=O)cn(CC(=O)N3C[C@H](F)C[C@H]3C(=O)NCc3cccc(Cl)c3F)c2c1 [Example 549, (3-Acetyl-1-{2-[(2S,4R)-2-(3-chloro-2-fluoro-benzylcarbamoyl)-4-fluoro-pyrrolidin-1-yl]-2-oxo-ethyl}-1H-indol-6-yl)-acetic acid methyl ester] | 69 nM
11 | CC(=O)c1cn(CC(=O)N2[C@@H]3C[C@@H]3C[C@H]2C(=O)NCc2cccc(Cl)c2F)c2cnccc12 [Example 550, (1R,3S,5R)-2-[2-(3-Acetyl-pyrrolo[2,3-c]pyridin-1-yl)-acetyl]-2-aza-bicyclo[3.1.0]hexane-3-carboxylic acid 3-chloro-2-fluorobenzylamide] | 33 nM
12 | O=C(CO)c1cn(CC(=O)N2C[C@H](F)C[C@H]2C(=O)N[C@H](CF)c2cccc(Br)c2)c2ccccc12 [Example 551, (2S,4R)-4-Fluoro-1-{2-[3-(2-hydroxy-acetyl)-indol-1-yl]-acetyl}-pyrrolidine-2-carboxylic acid [(S)-1-(3-bromo-phenyl)-2-fluoro-ethyl]-amide] | 899 nM
13 | CC(=O)c1cn(CC(=O)N2C[C@H](F)C[C@H]2C(=O)NCc2cccc(Cl)c2F)c2cnccc12 [Example 552, (2S,4R)-1-[2-(3-Acetyl-pyrrolo[2,3-c]pyridin-1-yl)-acetyl]-4-fluoro-pyrrolidine-2-carboxylic acid 3-chloro-2-fluoro-benzylamide] | 40 nM
14 | CC(=O)c1cn(CC(=O)N2[C@@H]3C[C@@H]3C[C@H]2C(=O)NCc2cccc(Cl)c2F)c2cccnc12 [Example 553, (1R,3S,5R)-2-[2-(3-Acetyl-pyrrolo[3,2-b]pyridin-1-yl)-acetyl]-2-aza-bicyclo[3.1.0] hexane-3-carboxylic acid 3-chloro-2-fluoro-benzylamide] | 5300 nM
15 | C[C@@]1(F)C[C@@H](C(=O)NCc2cccc(Cl)c2F)N(C(=O)Cn2cc(C(=O)C(F)(F)F)c3ccccc32)C1 [Example 554, (2S,4R)-4-Fluoro-4-methyl-1-{2-[3-(2,2,2-trifluoro-acetyl)-indol-1-yl]-acetyl}-pyrrolidine-2-carboxylic acid 3-chloro-2-fluoro-benzylamide] | 44 nM
16 | CC(=O)c1cn(CC(=O)N2C[C@@H](N(C)C)[C@H](F)[C@H]2C(=O)NCc2cccc(Cl)c2F)c2ccccc12 [Example 555, (2R,3S,4R)-1-[2-(3-Acetyl-indol-1-yl)-acetyl]-4-dimethylamino-3-fluoro-pyrrolidine-2-carboxylic acid 3-chloro-2-fluoro-benzylamide] | 2270 nM
17 | O=C(CO)c1cn(CC(=O)N2[C@@H]3C[C@@H]3C[C@H]2C(=O)NCc2cccc(Cl)c2F)c2ccccc12 [Example 556, (1R,3S,5R)-2-{2-[3-(2-Hydroxy-acetyl)-indol-1-yl]-acetyl}-2-aza-bicyclo[3.1.0] hexane-3-carboxylic acid 3-chloro-2-fluoro-benzylamide] | 25 nM
18 | CC(=O)c1cn(CC(=O)N2[C@@H]3C[C@@H]3C[C@H]2C(=O)N[C@H](CCO)c2cccc(Cl)c2F)c2ncccc12 [Example 557, (1R,3S,5R)-2-[2-(3-Acetyl-pyrrolo[2,3-b]pyridin-1-yl)-acetyl]-2-aza-bicyclo[3.1.0] hexane-3-carboxylic acid [(R)-1-(3-chloro-2-fluoro-phenyl)-3-hydroxy-propyl]-amide] | 134 nM
19 | CC(=O)c1cn(CC(=O)N2[C@@H]3C[C@@H]3C[C@H]2C(=O)Nc2cccc(OC(F)(F)F)c2)c2ncccc12 [Example 558, (1R,3S,5R)-2-[2-(3-Acetyl-pyrrolo[2,3-b]pyridin-1-yl)-acetyl]-2-aza-bicyclo[3.1.0] hexane-3-carboxylic acid (3-trifluoromethoxy-phenyl)-amide] | 1990 nM
20 | COc1ccc2c(c1)c(C=O)cn2CC(=O)N1C[C@H](F)C[C@H]1C(=O)NCc1cccc(Cl)c1F [Example 560, (2S,4R)-4-Fluoro-1-[2-(3-formyl-5-methoxy-indol-1-yl)-acetyl]-pyrrolidine-2-carboxylic acid 3-chloro-2-fluoro-benzylamide] | 141 nM
21 | O=C(NCc1cccc(Cl)c1F)[C@@H]1C[C@@H](F)CN1C(=O)Cn1cc(C(=O)C(F)(F)F)c2ccccc21 [Example 561, (2S,4R)-4-Fluoro-1-{2-[3-(2,2,2-trifluoro-acetyl)-indol-1-yl]-acetyl}-pyrrolidine-2-carboxylic acid 3-chloro-2-fluoro-benzylamide] | 14 nM
22 | CC(=O)c1cn(CC(=O)N2[C@@H]3C[C@@H]3C[C@H]2C(=O)Nc2cccc(OC(F)(F)F)c2F)c2ncccc12 [Example 562, (1R,3S,5R)-2-[2-(3-Acetyl-pyrrolo[2,3-b]pyridin-1-yl)-acetyl]-2-aza-bicyclo[3.1.0]hexane-3-carboxylic acid (2-fluoro-3-trifluoromethoxy-phenyl)-amide] | 804 nM
23 | O=C(CO)c1cn(CC(=O)N2C[C@H](F)C[C@H]2C(=O)NCc2cccc(Cl)c2F)c2ccccc12 [Example 563, (2S,4R)-4-Fluoro-1-{2-[3-(2-hydroxy-acetyl)-indol-1-yl]-acetyl}-pyrrolidine-2-carboxylic acid 3-chloro-2-fluoro-benzylamide] | 42 nM
24 | O=C(CO)c1cn(CC(=O)N2C[C@H](F)C[C@H]2C(=O)NCc2cccc(Br)c2F)c2ccccc12 [Example 564, (2S,4R)-4-Fluoro-1-{2-[3-(2-hydroxy-acetyl)-indol-1-yl]-acetyl}-pyrrolidine-2-carboxylic acid 3-bromo-2-fluoro-benzylamide] | 13 nM
25 | COCC(=O)c1cn(CC(=O)N2C[C@H](F)C[C@H]2C(=O)NCc2cccc(Cl)c2F)c2ccccc12 [Example 565, (2S,4R)-4-Fluoro-1-{2-[3-(2-methoxy-acetyl)-indol-1-yl]-acetyl}-pyrrolidine-2-carboxylic acid 3-chloro-2-fluoro-benzylamide] | 369 nM
26 | NC(=O)c1cn(CC(=O)N2C[C@@](F)(CO)C[C@H]2C(=O)NCc2cccc(Cl)c2F)c2ccccc12 [Example 566, 1-{2-[(2S,4R)-2-(3-Chloro-2-fluoro-benzylcarbamoyl)-4-fluoro-4-hydroxymethyl-pyrrolidin-1-yl]-2-oxo-ethyl}-1H-indole-3-carboxylic acid amide] | 436 nM
27 | NC(=O)c1cn(CC(=O)N2CCS[C@H]2C(=O)NCc2cccc(Cl)c2F)c2ccccc12 [Example 567, 1-{2-[(S)-2-(3-Chloro-2-fluoro-benzylcarbamoyl)-thiazolidin-3-yl]-2-oxo-ethyl}-1H-indole-3-carboxylic acid amide] | 293 nM
28 | COC[C@@H](NC(=O)[C@@H]1C[C@H]2C[C@H]2N1C(=O)Cn1cc(C(C)=O)c2ccccc21)c1cccc(Cl)c1F [Example 568, (1R,3S,5R)-2-[2-(3-Acetyl-indol-1-yl)-acetyl]-2-aza-bicyclo[3.1.0]hexane-3-carboxylic acid [(S)-1-(3-chloro-2-fluoro-phenyl)-2-methoxy-ethyl]-amide] | 121 nM

Reference: US9085555B2, “Complement pathway modulators and uses thereof” (priority 2011, dated 2015)
